US20100261736A1, “SUBSTITUTED BICYCLIC HETEROARYL COMPOUNDS FOR THE TREATMENT OF CARDIOVASCULAR DISEASE” (priority 2007, published 2010)

Target: T1, Prostacyclin receptors (IP receptors) of human thrombocyte membranes (Homo sapiens, UniProt P43119)
T1 construct: Thrombocyte membranes are obtained by centrifuging 50 ml of human blood
Test: Binding to prostacyclin receptors (IP receptors) of human thrombocyte membranes, 3H-Iloprost displacement
Details: 3 nM 3H-Iloprost, 60 min, room temperature
Protocol: B-1. Studies of Binding to Prostacyclin Receptors (IP Receptors) of Human Thrombocyte Membranes
Thrombocyte membranes are obtained by centrifuging 50 ml of human blood (Buffy coats with CDP Stabilizer, from Maco Pharma, Langen) for 20 min at 160×g. Remove the supernatant (platelet-rich plasma, PRP) and then centrifuge again at 2000×g for 10 min at room temperature. Resuspend the sediment in 50 mM tris(hydroxymethyl)aminomethane, which has been adjusted to a pH of 7.4 with 1 N hydrochloric acid, and store at −20° C. overnight. On the next day, centrifuge the suspension at 80 000×g and 4° C. for 30 min. Discard the supernatant. Resuspend the sediment in 50 mM tris(hydroxymethyl)aminomethane/hydrochloric acid, 0.25 mM ethylene diamine tetraacetic acid (EDTA), pH 7.4, and then centrifuge once again at 80 000×g and 4° C. for 30 min. Take up the membrane sediment in binding buffer (50 mM tris(hydroxymethyl)-aminomethane/hydrochloric acid, 5 mM magnesium chloride, pH 7.4) and store at −70° C. until the binding test.
For the binding test, incubate 3 nM ^3H-Iloprost (592 GBq/mmol, from AmershamBioscience) for 60 min with 300-1000 μg/ml of human thrombocyte membranes per charge (max. 0.2 ml) in the presence of the test substances at room temperature. After stopping, add cold binding buffer to the membranes and wash with 0.1% bovine serum albumin. After adding Ultima Gold Scintillator, quantify the radioactivity bound to the membranes using a scintillation counter. The nonspecific binding is defined as radioactivity in the presence of 1 μM Iloprost (from Cayman Chemical, Ann Arbor) and is as a rule <25% of the bound total radioactivity. The binding data (IC50 values) are determined using the program GraphPad Prism Version 3.02.

T1 sequence (P43119 whole entry): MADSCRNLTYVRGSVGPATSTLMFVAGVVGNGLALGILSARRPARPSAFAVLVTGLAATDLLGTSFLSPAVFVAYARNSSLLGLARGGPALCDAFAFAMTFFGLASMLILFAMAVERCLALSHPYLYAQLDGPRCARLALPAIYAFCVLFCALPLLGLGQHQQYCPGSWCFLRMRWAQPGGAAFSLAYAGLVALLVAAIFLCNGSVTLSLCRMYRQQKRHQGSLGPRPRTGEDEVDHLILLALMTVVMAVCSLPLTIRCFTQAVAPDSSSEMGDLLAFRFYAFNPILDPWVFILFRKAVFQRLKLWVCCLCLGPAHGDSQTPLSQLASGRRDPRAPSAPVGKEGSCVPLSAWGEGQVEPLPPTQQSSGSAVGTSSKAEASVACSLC

| SMILES | IC50 |
| --- | --- |
| COc1ccc(-c2c(-c3ccccc3)[nH]c3ncnc(O[C@H](C)CCCCC(=O)O)c23)cc1 [Example 5, (6R)-6-{[5-(4-Methoxyphenyl)-6-phenyl-7H-pyrrolo[2,3-d]pyrimidin-4-yl]oxy}heptanoic acid] | 39 nM |
| CCc1ccc(-c2c(-c3ccccc3)sc3ncnc(O[C@H](C)CCCCC(=O)O)c23)cc1 [Example 9, (6R)-6-{[5-(4-ethylphenyl)-6-phenylthieno[2,3-d]pyrimidin-4-yl]oxy}heptanoic acid] | 208 nM |
| COc1ccc(-c2c(-c3ccccc3)oc3ccnc(NCC(C)(C)COCC(=O)O)c23)cc1 [Example 19, (3-{[3-(4-Methoxyphenyl)-2-phenylfuro[3,2-c]pyridin-4-yl]amino}-2,2-dimethylpropoxy)acetic acid] | 98 nM |

Next, values leading:

| IC50 | SMILES |
| --- | --- |
| 984 nM | COc1ccc(-c2c(-c3ccccc3)oc3cccc(OCCCCCC(=O)O)c23)cc1 [Example 12, 6-{[3-(4-Methoxyphenyl)-2-phenyl-1-benzofuran-4-yl]oxy}hexanoic acid] |
| 35 nM | CCc1ccc(-c2c(-c3ccccc3)oc3nccc(NCC(C)(C)COCCC(=O)O)c23)cc1 [Example 21, 3-(3-{[3-(4-Ethylphenyl)-2-phenylfuro[2,3-b]pyridin-4-yl]amino}-2,2-dimethylpropoxy)-propanoic acid] |
| 39 nM | CCc1ccc(-c2c(-c3ccccc3)oc3nccc(O[C@H](C)CCCCC(=O)O)c23)cc1 [Example 28, (6R)-6-{[3-(4-ethylphenyl)-2-phenylfuro[2,3-b]pyridin-4-yl]oxy}heptanoic acid] |
| 1700 nM | CCc1ccc(-c2c(-c3ccccc3)oc3nccc(OCCOCCC(=O)O)c23)cc1 [Example 29] |

Test system: not given
Test: not given
Details: non-enzymatic transformation to inactive metabolite 6-keto-prostaglandin-F1alpha; cited from earlier work

| SMILES | half-life |
| --- | --- |
| CCCCC[C@H](O)/C=C/[C@@H]1[C@H]2C/C(=C/CCCC(=O)O)O[C@H]2C[C@H]1O [PGI2] | approx. 3 minutes |
